Values of other authors as cited in patent US20230399688A1, “COMPOSITIONS AND M[…] FOR COUPLED CELL-FREE TRANSCRIPTION-T[…] PROTEIN SYNTHESIS AND METHODS FOR USING THEM” (GENOMATICA, INC., priority 2015, published 2023).

Test system: human cancer cell lines
Conditions: in comparison to the parent drug, MTM

CO[C@@H]([C@@H]1Cc2cc3cc(O[C@H]4C[C@@H](O[C@H]5C[C@@H](O)[C@H](O)[C@@H](C)O5)[C@H](O)[C@@H](C)O4)c(C)c(O)c3c(O)c2C(=O)[C@H]1O[C@H]1C[C@@H](O[C@H]2C[C@@H](O[C@H]3C[C@](C)(O)[C@H](O)[C@@H](C)O3)[C@@H](O)[C@@H](C)O2)[C@H](O)[C@@H](C)O1)[C@@H](O)C(C)=O [MTM-SK, mithramycin SK]
therapeutic index: improved therapeutic index
